# Tests used:
# MV-4-11 tumor = assay: In vivo efficacy in MV-4-11 human acute myeloid leukemia subcutaneous tumor model; design: species or system C.B-17 SCID female mice
# Experimental: Method: Example 2 was formulated in 30% 2-Hydroxypropyl-beta-cyclodextrin (HPBCD), pH 9 and dosed as a single intravenous (iv) administration in a volume of 5 ml/kg. 10^6 MV-4-11 tumor cells were injected subcutaneously in the right flank of C.B-17 SCID female mice in a volume of 0.1 mL. Tumor volumes (measured by caliper), animal body weight, and tumor conditions were recorded twice weekly for the duration of the study. Tumor volumes (measured by caliper) were calculated using the formula: length (mm)×width (mm)^2[…]. For efficacy studies, mice were randomized based on tumor volumes and growth inhibition was assessed by comparison of the differences in tumor volume between control and treated groups. Dosing began when mean tumor size reached approximately 230 mm^3.
# NCI-H929 tumor = assay: In vivo combination efficacy in NCI-H929 human multiple myeloma subcutaneous tumor model; design: species or system C.B-17 SCID female mice; details: either agent alone (Example 2 30 mg/kg every other week; bortezomib 1 mg/kg weekly), NCI-H929 tumor bearing mice
# Experimental: Method: Example 2 was formulated in 30% 2-Hydroxypropyl-beta-cyclodextrin (HPBCD), pH 9 and dosed as intravenously (iv) in a volume of 5 ml/kg. 5×10^6 MOLP-8 tumor cells or 10^7 NCI-H929 tumor cells were injected subcutaneously in the right flank of C.B-17 SCID female mice in a volume of 0.1 mL. Tumor volumes (measured by caliper) were calculated using the formula: length (mm)×width (mm)^2[…]. For efficacy studies, mice were randomized based on tumor volumes and growth inhibition was assessed by comparison of the differences in tumor volume between control and treated groups. Dosing began when mean tumor size reached approximately 160 mm^3 for MOLP-8 and approximately 230 mm^3 for NCI-H929.
SMILES,"mice remaining tumor free (MV-4-11 tumor; once weekly iv 30 mg/kg, 16 days after initiation of therapy)","mice remaining tumor free (MV-4-11 tumor; single iv dose of 100 mg/kg, 16 days after therapy)","anti-tumor activity, agent alone (NCI-H929 tumor)"
"Cc1c2c(nn1C)CSCc1cc(n(C)n1)CSc1cc(c3ccccc3c1)OCCCc1c(C(=O)O)n(C)c3c-2c(Cl)ccc13 (atropisomer, axis not shown; (Ra)) [Example 2, (Ra)-(+)-17-chloro-5,13,14,22-tetramethyl-28-oxa-2,9-dithia-5,6,12,13,22-pentaazaheptacyclo[27.7.1.1^4,7.0^11,15.0^16,21.0^20,24.0^30,35]octatriaconta-1(37),4(38),6,11,14,16,18,20,23,29,31,33,35-tridecaene-23-carboxylic acid]",1 of 6,4 of the 6,no significant anti-tumor activity
"CC(C)C[C@H](NC(=O)[C@H](Cc1ccccc1)NC(=O)c1cnccn1)B(O)O [bortezomib, reference compound]",–,–,no significant anti-tumor activity
